Experimental data as given in patent publication US20130157954A1, “METHODS FOR TREATMENT OR PROPHYLAXIS OF KIDNEY OR LIVER DYSFUNCTION” (NPS PHARMACEUTICALS, INC., priority 2010, published 2013).

Experiment: Example 1: liver biomarkers (total bilirubin, ALT, AST, ALP) in short bowel syndrome patients, every four weeks for 24 weeks; also sorted by >5% change from baseline
Format: in vivo, Human
Settings: for ALT (SGPT) change from baseline >5%, percent of patients / ALT (SGPT) change from baseline −5% <= and <=5%, number of patients / ALT (SGPT) change from baseline −5% <= and <=5%, percent of patients / AST (SGOT) change from baseline <−5%, number of patients / AST (SGOT) change from baseline <−5%, percent of patients / AST (SGOT) change from baseline >5%, number of patients / AST (SGOT) change from baseline >5%, percent of patients / AST (SGOT) change from baseline −5% <= and <=5%, number of patients / AST (SGOT) change from baseline −5% <= and <=5%, percent of patients / TOTAL BILIRUBIN change from baseline <−5%, number of patients / TOTAL BILIRUBIN change from baseline <−5%, percent of patients / TOTAL BILIRUBIN change from baseline >5%, number of patients / TOTAL BILIRUBIN change from baseline >5%, percent of patients / TOTAL BILIRUBIN change from baseline −5% <= and <=5%, number of patients / TOTAL BILIRUBIN change from baseline −5% <= and <=5%, percent of patients / ALKALINE PHOSPHATASE change from baseline <−5%, number of patients / ALKALINE PHOSPHATASE change from baseline <−5%, percent of patients / ALKALINE PHOSPHATASE change from baseline >5%, number of patients / ALKALINE PHOSPHATASE change from baseline >5%, percent of patients / ALKALINE PHOSPHATASE change from baseline −5% <= and <=5%, number of patients / ALKALINE PHOSPHATASE change from baseline −5% <= and <=5%, percent of patients / ALT (SGPT) change from baseline <−5%, number of patients / ALT (SGPT) change from baseline <−5%, percent of patients / ALT (SGPT) change from baseline >5%, number of patients: 0.1 mg/kg/day
Description: Human patients with short bowel syndrome were divided into three groups: a control group (16 total individuals) to receive placebo, an experimental group (35 total individuals) to receive teduglutide at 0.05 mg/kg/day throughout the study, and an experimental group (32 total individuals) to receive teduglutide at 0.1 mg/kg/day throughout the study. Patients were treated by subcutaneous injection of placebo or the appropriate dose of teduglutide. As individuals with short bowel syndrome are likely to experience associated liver and kidney disease, known biomarkers of liver and kidney function were monitored every four weeks, for 24 weeks. The liver biomarkers tested included total bilirubin, ALT and AST and ALP. The kidney biomarkers tested included urea nitrogen, creatinine and GFR. Before administration of placebo or teduglutide, diagnostic biomarker levels were tested to establish a baseline for each individual.
To visualize the effect of GLP-2 on the levels of the diagnostic biomarkers, the average change from baseline was calculated for the placebo and teduglutide treated groups for each visit after a baseline was established. The average change from baseline of each group is depicted in FIGS. 1-7. The numerical figures for each diagnostic biomarker at each time point are depicted in Table 1.
The efficacy of teduglutide in treating liver dysfunction was further tested by sorting the data into two groups: individuals with abnormal baseline values of liver diagnostic biomarkers; and individuals with normal baseline values of liver diagnostic biomarkers. The mean diagnostic biomarker change from baseline for these two groups is shown for ALT (FIGS. 5 and 6) and AST (FIGS. 7 and 8). […] These changes were significant when compared to baseline levels for the group, and when compared to placebo (see FIGS. 5 and 7).
The raw data for this sorting is reproduced in Table 2 below.

SMILES: CC[C@H](C)[C@H](NC(=O)[C@H](Cc1ccccc1)NC(=O)[C@H](CC(=O)O)NC(=O)[C@H](CCCNC(=N)N)NC(=O)[C@H](C)NC(=O)[C@H](C)NC(=O)[C@H](CC(C)C)NC(=O)[C@H](CC(N)=O)NC(=O)[C@H](CC(=O)O)NC(=O)[C@H](CC(C)C)NC(=O)[C@@H](NC(=O)[C@@H](NC(=O)[C@H](CC(N)=O)NC(=O)[C@H](CCSC)NC(=O)[C@H](CCC(=O)O)NC(=O)[C@H](CC(=O)O)NC(=O)[C@H](CO)NC(=O)[C@H](Cc1ccccc1)NC(=O)[C@H](CO)NC(=O)CNC(=O)[C@H](CC(=O)O)NC(=O)CNC(=O)[C@@H](N)Cc1c[nH]cn1)[C@@H](C)O)[C@@H](C)CC)C(=O)N[C@@H](CC(N)=O)C(=O)N[C@@H](Cc1c[nH]c2ccccc12)C(=O)N[C@@H](CC(C)C)C(=O)N[C@H](C(=O)N[C@@H](CCC(N)=O)C(=O)N[C@H](C(=O)N[C@@H](CCCCN)C(=O)N[C@H](C(=O)N[C@H](C(=O)N[C@@H](CC(=O)O)C(=O)O)[C@@H](C)O)[C@@H](C)CC)[C@@H](C)O)[C@@H](C)CC [teduglutide]
- ALT (SGPT) change from baseline >5%, percent of patients (week 12): (21.9%)
- ALT (SGPT) change from baseline −5% <= and <=5%, number of patients (week 12): 2
- ALT (SGPT) change from baseline −5% <= and <=5%, percent of patients (week 12): (6.3%)
- AST (SGOT) change from baseline <−5%, number of patients (week 12): 15
- AST (SGOT) change from baseline <−5%, percent of patients (week 12): (46.9%)
- AST (SGOT) change from baseline >5%, number of patients (week 12): 10
- AST (SGOT) change from baseline >5%, percent of patients (week 12): (31.3%)
- AST (SGOT) change from baseline −5% <= and <=5%, number of patients (week 12): 3
- AST (SGOT) change from baseline −5% <= and <=5%, percent of patients (week 12): (9.4%)
- TOTAL BILIRUBIN change from baseline <−5%, number of patients (week 12): 14
- TOTAL BILIRUBIN change from baseline <−5%, percent of patients (week 12): (43.8%)
- TOTAL BILIRUBIN change from baseline >5%, number of patients (week 12): 9
- TOTAL BILIRUBIN change from baseline >5%, percent of patients (week 12): (28.1%)
- TOTAL BILIRUBIN change from baseline −5% <= and <=5%, number of patients (week 12): 6
- TOTAL BILIRUBIN change from baseline −5% <= and <=5%, percent of patients (week 12): (18.8%)
- ALKALINE PHOSPHATASE change from baseline <−5%, number of patients (week 16): 21
- ALKALINE PHOSPHATASE change from baseline <−5%, percent of patients (week 16): (65.6%)
- ALKALINE PHOSPHATASE change from baseline >5%, number of patients (week 16): 7
- ALKALINE PHOSPHATASE change from baseline >5%, percent of patients (week 16): (21.9%)
- ALKALINE PHOSPHATASE change from baseline −5% <= and <=5%, number of patients (week 16): 2
- ALKALINE PHOSPHATASE change from baseline −5% <= and <=5%, percent of patients (week 16): (6.3%)
- ALT (SGPT) change from baseline <−5%, number of patients (week 16): 19
- ALT (SGPT) change from baseline <−5%, percent of patients (week 16): (59.4%)
- ALT (SGPT) change from baseline >5%, number of patients (week 16): 9
- ALT (SGPT) change from baseline >5%, percent of patients (week 16): (28.1%)
- ALT (SGPT) change from baseline −5% <= and <=5%, number of patients (week 16): 2
- ALT (SGPT) change from baseline −5% <= and <=5%, percent of patients (week 16): (6.3%)
- AST (SGOT) change from baseline <−5%, number of patients (week 16): 18
- AST (SGOT) change from baseline <−5%, percent of patients (week 16): (56.3%)
- AST (SGOT) change from baseline >5%, number of patients (week 16): 8
- AST (SGOT) change from baseline >5%, percent of patients (week 16): (25.0%)
- AST (SGOT) change from baseline −5% <= and <=5%, number of patients (week 16): 3
- AST (SGOT) change from baseline −5% <= and <=5%, percent of patients (week 16): (9.4%)
- TOTAL BILIRUBIN change from baseline <−5%, number of patients (week 16): 14
- TOTAL BILIRUBIN change from baseline <−5%, percent of patients (week 16): (43.8%)
- TOTAL BILIRUBIN change from baseline >5%, number of patients (week 16): 6
- TOTAL BILIRUBIN change from baseline >5%, percent of patients (week 16): (18.8%)
- TOTAL BILIRUBIN change from baseline −5% <= and <=5%, number of patients (week 16): 8
- TOTAL BILIRUBIN change from baseline −5% <= and <=5%, percent of patients (week 16): (25.0%)
- ALKALINE PHOSPHATASE change from baseline <−5%, number of patients (week 20): 19
- ALKALINE PHOSPHATASE change from baseline <−5%, percent of patients (week 20): (59.4%)
- ALKALINE PHOSPHATASE change from baseline >5%, number of patients (week 20): 9
- ALKALINE PHOSPHATASE change from baseline >5%, percent of patients (week 20): (28.1%)
- ALKALINE PHOSPHATASE change from baseline −5% <= and <=5%, number of patients (week 20): 1
- ALKALINE PHOSPHATASE change from baseline −5% <= and <=5%, percent of patients (week 20): (3.1%)
- ALT (SGPT) change from baseline <−5%, number of patients (week 20): 19
- ALT (SGPT) change from baseline <−5%, percent of patients (week 20): (59.4%)
- ALT (SGPT) change from baseline >5%, number of patients (week 20): 8
- ALT (SGPT) change from baseline >5%, percent of patients (week 20): (25.0%)
- ALT (SGPT) change from baseline −5% <= and <=5%, number of patients (week 20): 2
- ALT (SGPT) change from baseline −5% <= and <=5%, percent of patients (week 20): (6.3%)
- AST (SGOT) change from baseline <−5%, number of patients (week 20): 16
- AST (SGOT) change from baseline <−5%, percent of patients (week 20): (50.0%)
- AST (SGOT) change from baseline >5%, number of patients (week 20): 9
- AST (SGOT) change from baseline >5%, percent of patients (week 20): (28.1%)
- AST (SGOT) change from baseline −5% <= and <=5%, number of patients (week 20): 3
- AST (SGOT) change from baseline −5% <= and <=5%, percent of patients (week 20): (9.4%)
- TOTAL BILIRUBIN change from baseline <−5%, number of patients (week 20): 14
- TOTAL BILIRUBIN change from baseline <−5%, percent of patients (week 20): (43.8%)
- TOTAL BILIRUBIN change from baseline >5%, number of patients (week 20): 9
- TOTAL BILIRUBIN change from baseline >5%, percent of patients (week 20): (28.1%)
- TOTAL BILIRUBIN change from baseline −5% <= and <=5%, number of patients (week 20): 6
- TOTAL BILIRUBIN change from baseline −5% <= and <=5%, percent of patients (week 20): (18.8%)
- ALKALINE PHOSPHATASE change from baseline <−5%, number of patients (week 24): 20
- ALKALINE PHOSPHATASE change from baseline <−5%, percent of patients (week 24): (62.5%)
- ALKALINE PHOSPHATASE change from baseline >5%, number of patients (week 24): 5
- ALKALINE PHOSPHATASE change from baseline >5%, percent of patients (week 24): (15.6%)
- ALKALINE PHOSPHATASE change from baseline −5% <= and <=5%, number of patients (week 24): 4
- ALKALINE PHOSPHATASE change from baseline −5% <= and <=5%, percent of patients (week 24): (12.5%)
- ALT (SGPT) change from baseline <−5%, number of patients (week 24): 18
- ALT (SGPT) change from baseline <−5%, percent of patients (week 24): (56.3%)
- ALT (SGPT) change from baseline >5%, number of patients (week 24): 11
- ALT (SGPT) change from baseline >5%, percent of patients (week 24): (34.4%)
- ALT (SGPT) change from baseline −5% <= and <=5%, number of patients (week 24): 0
- ALT (SGPT) change from baseline −5% <= and <=5%, percent of patients (week 24): (0.0%)
- AST (SGOT) change from baseline <−5%, number of patients (week 24): 15
- AST (SGOT) change from baseline <−5%, percent of patients (week 24): (46.9%)
- AST (SGOT) change from baseline >5%, number of patients (week 24): 11
- AST (SGOT) change from baseline >5%, percent of patients (week 24): (34.4%)
- AST (SGOT) change from baseline −5% <= and <=5%, number of patients (week 24): 3
- AST (SGOT) change from baseline −5% <= and <=5%, percent of patients (week 24): (9.4%)
- TOTAL BILIRUBIN change from baseline <−5%, number of patients (week 24): 11
- TOTAL BILIRUBIN change from baseline <−5%, percent of patients (week 24): (34.4%)
- TOTAL BILIRUBIN change from baseline >5%, number of patients (week 24): 10
- TOTAL BILIRUBIN change from baseline >5%, percent of patients (week 24): (31.3%)
- TOTAL BILIRUBIN change from baseline −5% <= and <=5%, number of patients (week 24): 6
- TOTAL BILIRUBIN change from baseline −5% <= and <=5%, percent of patients (week 24): (18.8%)
- fraction of individuals with a decrease of more than 5% in ALT vs placebo (beginning at 4 weeks after the commencement of treatment): greater fraction of individuals experiencing a decrease of more than 5%
- ALT and AST change from baseline in patients with abnormal baseline values (FIGS. 5 and 7) (compared to baseline and compared to placebo): statistically significant improvements
- average level of ALP relative to baseline (FIG. 4) (groups receiving teduglutide): decreased relative to baseline for the entire period of the study
- percent of individuals with an increase of greater than 5% in ALP or ALT vs placebo (groups receiving teduglutide): effective prophylactic against increases in biomarkers associated with liver dysfunction
- individuals experiencing a decrease in ALP greater than 5% from baseline (groups receiving teduglutide, within 4 weeks of the beginning of treatment): roughly 60%
- average decrease in level of ALT compared to baseline (FIG. 1) (groups receiving teduglutide, maintained for the entire duration of the study): about 10 U/L
